Results taken from US20160250285A1, “NEUROPROTECTIVE PEPTIDES” (priority 2013, published 2016).

Test system: primary cortical neuronal cultures
Experimental: Establishment of cortical cultures was as previously described (Meloni et al. 2001). Briefly, cortical tissue from E18-E19 Sprague-Dawley rats was dissociated in Dulbecco's modified Eagle medium (DMEM; Invitrogen, Australia) supplemented with 1.3 mM L-cysteine, 0.9 mM NaHCOa, 10 units/ml papain (Sigma, USA) and 50 units/ml DNase (Sigma) and washed in cold DMEM/10% horse serum. Neurons were resuspended in Neurobasal (Invitrogen) containing 2% B27 supplement (B27; Invitrogen). Before seeding, 96-well sized glass wells (6 mm diameter, ProTech, Australia) or 96-well plastic plates (ProSciTech, Australia) were coated with poly-D-lysine overnight ([…]: 50 mg/mL; 70-150 K, Sigma). Excess poly-D-lysine solution was then removed and replaced with Neurobasal (containing 2% B27; 4% fetal bovine serum; 1% horse serum; […] glutamate; […] 2-mercaptoethanol; and […]). Neurons were plated to obtain ≈10,000 viable neurons for each well on day in vitro 11-12. Neuronal cultures were maintained in a CO2 incubator (5% CO2, 95% air balance, 98% humidity) at 37° C. On day in vitro 4 one third of the culture medium was removed and replaced with fresh Neurobasal/2% B27 containing the mitotic inhibitor, cytosine arabinofuraNOside (1 mM final concentration; Sigma). On day in vitro 8 one half of the culture medium was replaced with Neurobasal/2% B27. Cultures were used on day in vitro 11 or 12 after which time they routinely consist of >97% neurons and 1-3% astrocytes (Meloni et al. 2001).
Peptides were added to culture wells (96-well plate format) 15 minutes prior to glutamic acid or kainic acid exposure by removing media and adding 50 μl of Neurobasal/2% 327 containing CPPs, control peptides or MK801/CNQX. To induce excitotoxicity, 50 μl of Neurobasal/2% B27 containing glutamic acid (200 μM) or kainic acid (400 μM) or NMDA (200 μM) was added to the culture wells (100 μM glutamic acid, 200 μM kainic acid and NMDA 100 μM final concentration). Cultures were incubated at 37° C. in the CO2 incubator for 5 minutes for glutamic acid, 45 minutes for kainic acid and 10 minutes for NMDA exposure, after which time the media was replaced with 100 μl of 50% Neurobasal/2% N2 supplement (Invitrogen) and 50% balanced salt solution (BSS; see below). Cultures were incubated for a further 24 hours at 37° C. in the CO2 incubator. The untreated controls with or without glutamic acid or kainic acid treatment received the same wash steps and media additions.
Twenty-four hours after insult, neuronal cultures were examined by light microscopy for qualitative assessment of neuronal cell viability. Neuronal viability was quantitatively measured by 3-(4,5,dimethyliazol-2-yl)-5-(3-carboxymethoxy-phenyl)-2-(4-sulfophenyl)-2H-tetrazolium salt (MTS) assay (Promega, Australia). The MTS assay measures the cellular conversion of the tetrazolium salt to a water-soluble brown formazan salt, which is detected spectrophotometrically at 490 nm. MTS absorbance data were converted to reflect proportional cell viability relative to both the untreated and treated controls, with the untreated control taken as 100% viability, and presented as mean±SEM. For studies using astrocytes, bEND3, and SH-Y5Y cells, raw MTS data was used to generate graphs. Viability data was analysed by ANOVA, followed by post-hoc Fischer's PLSD test, with P<0.05 values considered statistically significant. Four- to six wells were used in all assays.

## N=C(N)NCCC[C@H](NC(=O)[C@H](CCCNC(=N)N)NC(=O)[C@H](CCCNC(=N)N)NC(=O)[C@H](CCCNC(=N)N)NC(=O)[C@H](CCCNC(=N)N)NC(=O)[C@H](CCCNC(=N)N)NC(=O)[C@H](CCCNC(=N)N)NC(=O)[C@H](CCCNC(=N)N)NC(=O)[C@@H](N)CCCNC(=N)N)C(=O)O [Peptide R9]
FIG. 2
  neuroprotection: neuroprotective
Kainic acid model
  fold more potent than TAT-D, based on IC50 values: 7 fold
read-out: IC50: Kainic acid model, Table 3, from FIG. 2, 200 μM kainic acid 45 min, viability 24 h, MTS
  IC50: 0.81 µM
